pEC50: −log10 of the molar value.
What was measured:
[1] = tested on: mouse (BALB/c, male); assay: Effect of lipopolysaccharide induction on neutrophilic infiltration in mouse lung; type: in vivo; details: neutrophil infiltration in BAL fluid, LPS-exposed BALB/c mouse, oral; for inhibition in vivo at 3 mg/kg / inhibition in vivo at 1 mg/kg: 5 h, read-out: SUPPRESSION RATIO
Method: Effect of Lipopolysaccharide Induction on Neutrophilic Infiltration in Mouse Lung A compound to be tested was orally administrated to a mouse (BALB/c, male), and after 30 minutes, the mouse was placed in a plastic container. Lipopolysaccharide (0.3 mg/mL) dissolved in physiological saline was aerosolized with an ultrasonic wave nebulizer (NE-U17, OMRON Corporation), and exposed to the mouse for 10 minutes. After 5 hours, the anesthetized mouse was sacrificed by exsanguination. A cannula was inserted in the respiratory tract and bronchoalveolar lavage (BAL) with 1 mL of 0.85% NaCl liquid containing 0.4% sodium citrate was carried out. This operation was repeated 3 times, to obtain a BAL fluid. The BAL fluid was centrifuged at 4° C. and ×200 g for 5 minutes, and the pellet was suspended in a physiological saline containing 0.1% BSA. The number of white blood cells was counted using Turks solution with a microscope, and the total white blood cell count was calculated. The white blood cells were fixed on a glass slide using Cytospin 3 (Thermo BioAnalysis Japan K. K.). The cells were stained with Diff-Quik (SYSMEX INTERNATIONAL REAGENTS CO., LTD.), and the number thereof was counted with a microscope, and the neutrophil ratio was calculated. The neutrophil ratio was multiplied by the total white blood cell count to calculate the total neutrophil count. An effect of the compound to be tested represents a percentage (%) of suppression ratio relative to the neutrophil count in a control.

[2] = biological target: T1, human FPRL1 (Homo sapiens, UniProt P25090); assay: Measurement test of agonist activity on human FPRL1 (test of calcium mobilization in cell, HEK293 with human FPRL1 and Gα15 expression vectors); type: cell-based; details: calcium mobilization in HEK293 cells with human FPRL1 and Gα15 expression vectors
T1 construct: expressed in transfected cells; host or cells: HEK293 (JCRB9068, NIBIO), transient transfection with pCMV-script vectors using Lipofectamine 2000
T1 sequence (P25090 1-351): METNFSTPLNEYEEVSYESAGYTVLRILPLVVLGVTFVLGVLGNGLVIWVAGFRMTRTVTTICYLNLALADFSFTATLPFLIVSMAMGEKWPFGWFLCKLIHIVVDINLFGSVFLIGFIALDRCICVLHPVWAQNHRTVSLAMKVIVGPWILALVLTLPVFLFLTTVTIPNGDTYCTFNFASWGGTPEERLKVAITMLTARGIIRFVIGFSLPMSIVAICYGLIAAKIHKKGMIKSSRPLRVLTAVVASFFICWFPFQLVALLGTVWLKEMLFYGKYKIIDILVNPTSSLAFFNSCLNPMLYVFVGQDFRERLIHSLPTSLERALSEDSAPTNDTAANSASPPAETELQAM
Summary of the method: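 HEK293 transiently co-transfected with human FPRL1 and Gα15, plated 24 h before assay, loaded with Fluo-4 NW dye plus probenecid. Compounds in eight 10-fold dilutions (DMSO stocks 10^−2 to 10^−9 M, then diluted 100-fold in assay buffer); calcium mobilization read on Flexstation for EC50.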

Row | SMILES | pEC50 [2] | inhibition in vivo at 3 mg/kg [1] | inhibition in vivo at 1 mg/kg ([1]; dose 1 mg/kg) | SUPPRESSION RATIO (%) ([1]; dose 1 mg/kg)
1 | COc1cc(F)c([C@@H]2CNC(=O)[C@H]2NC(=O)Nc2ccc(C#N)cc2)c(F)c1 (single isomer, unassigned) [EXAMPLE 1-23, (−)-1-(4-cyanophenyl)-3-[(3S*,4R*)-4-(2,6-difluoro-4-methoxyphenyl)-2-oxopyrrolidin-3-yl]urea] | 9.11 | 98.9% | – | –
2 | COc1ccc([C@@H]2CN(CCO)C(=O)[C@H]2NC(=O)Nc2ccc(F)cc2)c(F)c1 (single isomer, unassigned) [EXAMPLE 25-1, (−)-1-[(3S*,4R*)-4-(2-Fluoro-4-methoxyphenyl)-1-(2-hydroxyethyl)-2-oxopyrrolidin-3-yl]-3-(4-fluorophenyl)urea] | 10.40 | 99.1% | – | –
3 | COc1cc(F)c([C@@H]2CN(CCO)C(=O)[C@H]2NC(=O)Nc2ccc(F)cc2)c(F)c1 (single isomer, unassigned) [EXAMPLE 26-1, (−)-1-[(3S*,4R*)-4-(2,6-Difluoro-4-methoxyphenyl)-1-(2-hydroxyethyl)-2-oxopyrrolidin-3-yl]-3-(4-fluorophenyl)urea] | 10.15 | – | 99.6% | –
4 | COc1cc(F)c([C@@H]2CN/C(=N\OCCO)[C@H]2NC(=O)Nc2ccc(F)cc2)c(F)c1 (single isomer, unassigned) [EXAMPLE 32-5, (−)-1-{(3S*,4R*,Z)-4-(2,6-difluoro-4-methoxyphenyl)-2-[(2-hydroxyethoxy)imino]pyrrolidin-3-yl}-3-(4-fluorophenyl)urea] | 10.52 | – | 99.8% | –
5 | COc1cc(F)c([C@@H]2CN/C(=N\OCCO)[C@H]2NC(=O)Nc2ccc(C)cc2)c(F)c1 (single isomer, unassigned) [EXAMPLE 32-12, (−)-1-{(3S*,4R*,Z)-4-(2,6-difluoro-4-methoxyphenyl)-2-[(2-hydroxyethoxy)imino]pyrrolidin-3-yl}-3-(p-tolyl)urea] | 9.57 | – | – | 96.8%

The next lines start with results.

Row | pEC50 [2] | SMILES | inhibition in vivo at 3 mg/kg [1] | inhibition in vivo at 1 mg/kg ([1]; dose 1 mg/kg) | SUPPRESSION RATIO (%) ([1]; dose 1 mg/kg)
6 | 9.89 | CO/N=C1\NC[C@@H](c2ccc(OC)cc2)[C@@H]1NC(=O)Nc1ccc(F)cc1 (single isomer, unassigned) [EXAMPLE 32-1, (−)-1-(4-Fluorophenyl)-3-[(3S*,4R*,Z)-2-(methoxyimino)-4-(4-methoxyphenyl)pyrrolidin-3-yl]urea] | 99% | – | –
7 | 10.30 | CO/N=C1\NC[C@@H](c2c(F)cc(OC)cc2F)[C@@H]1NC(=O)Nc1ccc(F)cc1 (single isomer, unassigned) [EXAMPLE 32-3, (−)-1-[(3S*,4R*,Z)-4-(2,6-difluoro-4-methoxyphenyl)-2-(methoxyimino)pyrrolidin-3-yl]-3-(4-fluorophenyl)urea] | 99.1% | – | –

From US9822069B2, “Urea derivative or pharmacologically acceptable salt thereof” (KYORIN PHARMACEUTICAL CO. LTD., priority 2013, dated 2017)
